Data as given in ChEMBL document CHEMBL4376816, “Discovery of the Oral Leukotriene C4 Synthase Inhibitor (1S,2S)-2-({5-[(5-Chloro-2,4-difluorophenyl)(2-fluoro-2-methylpropyl)amino]-3-methoxypyrazin-2-yl}carbonyl)cyclopropanecarboxylic Acid (AZD9898) as a New Treatment for Asthma” (J Med Chem, 2019).
Converted amounts (≈) assume the structure as drawn. The source made the active and inactive calls. No cut-off for these calls is given here.

How the values were obtained:
Blood [1] = assay: Preservation of LXA4 level in calcium ionophore A23187-stimulated asthmatic human whole blood preincubated for 30 mins followed by calcium ionophore A23187 stimulation and measured after 60 mins by LC-MS analysis; assay type: functional, tissue-based
[2] = Oral bioavailability in Han Wistar rat at 1 mg/kg after 24 hrs; assay type: ADME, organism-based; conditions: in vivo
[3] = Fraction unbound in Sprague-Dawley rat plasma by equilibrium dialysis based LC-MS analysis; assay type: ADME, cell-free
Blood [4] = assay: Preservation of LXA4 level in calcium ionophore A23187-stimulated healthy human whole blood preincubated for 30 mins followed by calcium ionophore A23187 stimulation and measured after 60 mins by LC-MS analysis; assay type: functional, tissue-based
Cytochrome P450 2C9 = Cytochrome P450 2C9 (Homo sapiens, UniProt P11712); assay: Inhibition of recombinant human CYP2C9 expressed in Escherichia coli using coumarin based substrate by fluorescence assay; assay type: ADME
Sequence of Cytochrome P450 2C9 (P11712 whole entry, the tested form may be a part): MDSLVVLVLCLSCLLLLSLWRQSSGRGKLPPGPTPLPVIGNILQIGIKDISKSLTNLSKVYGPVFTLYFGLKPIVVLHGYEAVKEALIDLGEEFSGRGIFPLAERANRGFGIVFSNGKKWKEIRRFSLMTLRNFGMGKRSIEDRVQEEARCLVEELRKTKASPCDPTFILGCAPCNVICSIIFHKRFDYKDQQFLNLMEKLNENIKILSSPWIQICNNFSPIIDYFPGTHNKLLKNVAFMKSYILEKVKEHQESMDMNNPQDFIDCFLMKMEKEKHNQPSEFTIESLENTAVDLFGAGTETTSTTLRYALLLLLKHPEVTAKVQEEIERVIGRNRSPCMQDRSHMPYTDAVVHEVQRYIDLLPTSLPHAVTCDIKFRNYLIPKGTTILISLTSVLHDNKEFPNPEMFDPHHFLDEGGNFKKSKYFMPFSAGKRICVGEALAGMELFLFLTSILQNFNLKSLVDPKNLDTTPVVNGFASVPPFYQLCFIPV

[5] = Effective half life in Beagle dog at 1 mg/kg, iv infusion or 2 mg/kg, po via gavage after 48 hrs; assay type: ADME, organism-based, Canis lupus familiaris; conditions: in vivo, read-out: t1/2eff (converted)
[6] = Thermodynamic solubility of compound in pH 7.4 PBS at 1 mg/ml incubated for 24 hrs under shaking condition by LC-MS/MS analysis; assay type: physicochemical; conditions: read-out: Therm_solubility
[7] = Genotoxicity in Salmonella typhimurium by Ames test; assay type: toxicity; conditions: salmonella enterica subsp. enterica serovar typhimurium
[8] = target: T1, Leukotriene C4 synthase (Homo sapiens) (UniProt Q16873); assay: Inhibition of LTC4S in healthy human whole blood assessed as inhibition of calcium ionophore A23187 stimulated cysteinyl leukotrienes production preincuabted for 30 mins followed by calcium ionophore stimulation and measured after 10 mins by LC-MS analysis; assay type: tissue-based
T1 sequence (whole entry): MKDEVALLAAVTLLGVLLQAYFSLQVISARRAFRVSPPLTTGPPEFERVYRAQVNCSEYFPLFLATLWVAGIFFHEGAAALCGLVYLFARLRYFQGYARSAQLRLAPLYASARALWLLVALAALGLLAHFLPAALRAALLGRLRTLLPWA

[9] = Intrinsic clearance in human hepatocytes at 1 uM assessed as per million cells after 2 to 60 mins by LC-MS/MS analysis; assay type: ADME, cell-based, Hepatocyte; conditions: read-out: CLH
[10] = Volume of distribution at steady state in Beagle dog at 1 mg/kg, iv infusion or 2 mg/kg, po via gavage after 48 hrs; assay type: ADME, organism-based, Canis lupus familiaris; conditions: in vivo, read-out: Vdss

bioavailability [2]: 100% | fraction unbound [3]: 0.025 | IC50 (Cytochrome P450 2C9): > 30 µM | half-life [5]: 6.1 h | solubility thermodynamic at 24 h [6]: 2080 µM (≈ 952 µg/mL) | inhibition [8]: Active | hepatocyte CLint at 1 µM [9]: < 1.2 µL/min/1e6 cells | Vd [10]: 1 L/kg
SMILES: COc1nc(N(CC(C)(C)F)c2cc(Cl)c(F)cc2F)cnc1C(=O)[C@H]1C[C@@H]1C(=O)O [AZD-9898]
Activity (Blood [1]): Dose-dependent effect | Activity (Blood [4]): Dose-dependent effect | Activity [7]: Non-Toxic
